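Abbreviation: GI50, concentration required for 50% inhibition of growth. At the TGI there is no net growth.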
Columns and labels:
Experiment in all cases: growth of human tumour cells (NCI), 384-well format
[1] = system: 786-0 renal
[2] = system: A498 renal
[3] = system: A549 NSCLC
[4] = system: ACHN renal
[5] = system: BT-549 breast
[6] = system: CAKI-1 renal
[7] = system: CCRF-CEM leukemia
[8] = system: COLO 205 colon
[9] = system: DU-145 prostate
[10] = system: EKVX NSCLC
[11] = system: HCC-2998 colon
[12] = system: HCT-116 colon
[13] = system: HCT-15 colon
[14] = system: HL-60(TB) leukemia
[15] = system: HOP-62 NSCLC
[16] = system: HOP-92 NSCLC
[17] = system: HS 578T breast
[18] = system: HT29 colon
[19] = system: IGROV1 ovarian
[20] = system: K-562 leukemia
[21] = system: KM12 colon
[22] = system: LOX IMVI melanoma
[23] = system: M14 melanoma
[24] = system: MALME-3M melanoma
[25] = system: MCF7 breast
[26] = system: MDA-MB-231 breast
[27] = system: MDA-MB-435 melanoma
[28] = system: MDA-MB-468 breast
[29] = system: MOLT-4 leukemia
[30] = system: NCI-H226 lung
[31] = system: NCI-H23 lung
[32] = system: NCI-H322M lung
[33] = system: NCI-H460 NSCLC
[34] = system: NCI-H522 lung
[35] = system: NCI/ADR-RES ovarian
[36] = system: OVCAR-3 ovarian
[37] = system: OVCAR-4 ovarian
[38] = system: OVCAR-8 ovarian
[39] = system: PC-3 prostate
[40] = system: RPMI-8226 leukemia
[41] = system: RXF 393 renal
[42] = system: SF-268 CNS
[43] = system: SF-295 CNS
[44] = system: SF-539 CNS
[45] = system: SK-MEL-28 melanoma
[46] = system: SK-MEL-5 melanoma
[47] = system: SK-OV-3 ovarian
[48] = system: SN12C renal
[49] = system: SNB-19 CNS
[50] = system: SNB-75 CNS
[51] = system: SW-620 colon
[52] = system: T-47D breast
[53] = system: TK-10 renal
[54] = system: U251 glioblastoma
[55] = system: UACC-257 melanoma
[56] = system: UACC-62 melanoma
[57] = system: UO-31 renal

COc1cc2nc(N3CCCN(C)CC3)nc(NC3CCN(Cc4ccccc4)CC3)c2cc1OC
GI50 [1]: 1300 nM | TGI [1]: 2590 nM | GI50 [2]: 625 nM | TGI [2]: 1830 nM | GI50 [3]: 1660 nM | TGI [3]: 3080 nM | GI50 [4]: 1650 nM | TGI [4]: 3040 nM | GI50 [5]: 1090 nM | TGI [5]: 2300 nM | GI50 [6]: 578 nM | TGI [6]: 1830 nM | GI50 [7]: 227 nM | TGI [7]: 622 nM | GI50 [8]: 1340 nM | TGI [8]: 2640 nM | GI50 [9]: 1380 nM | TGI [9]: 2730 nM | GI50 [10]: 1650 nM | TGI [10]: 3620 nM | GI50 [11]: 867 nM | TGI [11]: 2130 nM | GI50 [12]: 351 nM | TGI [12]: 1020 nM | GI50 [13]: 611 nM | TGI [13]: 1900 nM | GI50 [14]: 233 nM | TGI [14]: 541 nM | GI50 [15]: 1760 nM | TGI [15]: 3170 nM | GI50 [16]: 1380 nM | TGI [16]: 2720 nM | GI50 [17]: 1480 nM | TGI [17]: 2810 nM | GI50 [18]: 395 nM | TGI [18]: 1320 nM | GI50 [19]: 1850 nM | TGI [19]: 3830 nM | GI50 [20]: 163 nM | TGI [20]: 366 nM | GI50 [21]: 434 nM | TGI [21]: 1670 nM | GI50 [22]: 1540 nM | TGI [22]: 2890 nM | GI50 [23]: 600 nM | TGI [23]: 1850 nM | GI50 [24]: 1150 nM | TGI [24]: 2370 nM | GI50 [25]: 694 nM | TGI [25]: 2020 nM | GI50 [26]: 725 nM | TGI [26]: 2110 nM | GI50 [27]: 1570 nM | TGI [27]: 2930 nM | GI50 [28]: 1200 nM | TGI [28]: 2450 nM | GI50 [29]: 538 nM | TGI [29]: 1840 nM | GI50 [30]: 1590 nM | TGI [30]: 3180 nM | GI50 [31]: 1560 nM | TGI [31]: 3160 nM | GI50 [32]: 1440 nM | TGI [32]: 2840 nM | GI50 [33]: 456 nM | TGI [33]: 1500 nM | GI50 [34]: 1430 nM | TGI [34]: 2750 nM | GI50 [35]: 4780 nM | TGI [35]: 15900 nM | GI50 [36]: 540 nM | TGI [36]: 1710 nM | GI50 [37]: 1010 nM | TGI [37]: 2190 nM | GI50 [38]: 1030 nM | TGI [38]: 2240 nM | GI50 [39]: 1140 nM | TGI [39]: 2550 nM | GI50 [40]: 449 nM | TGI [40]: 1540 nM | GI50 [41]: 572 nM | TGI [41]: 1890 nM | GI50 [42]: 943 nM | TGI [42]: 2140 nM | GI50 [43]: 1550 nM | TGI [43]: 2890 nM | GI50 [44]: 339 nM | TGI [44]: 916 nM | GI50 [45]: 1640 nM | TGI [45]: 3020 nM | GI50 [46]: 968 nM | TGI [46]: 2160 nM | GI50 [47]: 1350 nM | TGI [47]: 2660 nM | GI50 [48]: 1720 nM | TGI [48]: 3220 nM | GI50 [49]: 1510 nM | TGI [49]: 3340 nM | GI50 [50]: 1660 nM | TGI [50]: 3040 nM | GI50 [51]: 405 nM | TGI [51]: 1450 nM | GI50 [52]: 1780 nM | TGI [52]: 3200 nM | GI50 [53]: 1180 nM | TGI [53]: 2500 nM | GI50 [54]: 1150 nM | TGI [54]: 2390 nM | GI50 [55]: 178 nM | TGI [55]: 319 nM | GI50 [56]: 1280 nM | TGI [56]: 2570 nM | GI50 [57]: 1780 nM | TGI [57]: 3180 nM
